Laboratory results published in patent US9630977B2, “Cephalosporin derivatives and pharmaceutical compositions thereof” (Legochem Biosciences, Inc., priority 2011, dated 2017).
Values after ≈ are worked out from the molar mass of the structure shown. Where two headings read alike, the source gives them in different places.

Assays:
Assay in all cases: In vitro antibacterial activity test (broth microdilution)
Format in all cases: cell-based
E. coli AG100 = settings: Escherichia coli
Method: (§1) To evaluate antibacterial activity of each of the compounds of Examples 1 to 68, in vitro antibacterial activity test was performed.
(§2) The in vitro antibacterial activity was evaluated by measuring MIC90 (ug/mL) of each of the compounds of Examples 1 to 68, which is defined as the lowest concentration of an antibiotic that will inhibit the visible growth of 90% of microorganisms after incubation as compared with a control group to which the antibiotic is not treated. MIC90 values were measured by the broth microdilution method developed by the Clinical and Laboratory Standards Institute (CLSI) (see CLSI M7-A5, Methods for Dilution Antimicrobial Susceptibility Test for Bacteria that Grow Aerobically-Fifth Edition (2000): CLSI, Villanova, Pa.).
(§3) In vitro antibacterial activity was measured with respect to the following 19 clinical isolates: M. catarrhalis; P. aeruginosa (5 strains); K. pneumoniae (6 strains); A. baumannii (3 strains); E. coli (2 strains); A. calcoaceticus; and E. cloacae.
(§4) Test compounds each (the cephalosporin derivative compounds prepared in Examples 1 to 68) were dissolved in DMSO at the concentration of 10,240 ug/mL, were diluted by two fold with DMSO, and then were diluted by twenty fold with sterilized distilled water. The final concentration in the antibacterial activity test was in the range of […] to 128 ug/mL, and the final concentration of DMSO used as an adjuvant was 2.5% (V/V).

A. baumannii 52 = settings: Acinetobacter baumannii
Method: as §1, §2, §3, §4

K. pneumoniae β13 = settings: Klebsiella pneumoniae
Method: as §1, §2, §3, §4

K. pneumoniae β9 = settings: Klebsiella pneumoniae
Method: as §1, §2, §3, §4

[1] = system: A. calcoaceticus ATCC15473; settings: Acinetobacter calcoaceticus
Method: as §1, §2, §3, §4

K. pneumoniae β11 = settings: Klebsiella pneumoniae
Method: as §1, §2, §3, §4

E. coli β4 = settings: Escherichia coli
Method: as §1, §2, §3, §4

P. aeruginosa 6065Y = settings: Pseudomonas aeruginosa
Method: as §1, §2, §3, §4

M. catarrhalis 2524 = settings: Moraxella catarrhalis
Method: as §1, §2, §3, §4

A. baumannii 46 = system: A. baumannii 46
Method: as §1, §2, §3, §4

P. aeruginosa 37 = settings: Pseudomonas aeruginosa, 37, P. aeruginosa 37
Method: as §1, §2, §3, §4

P. aeruginosa 40 = system: P. aeruginosa 40
Method: as §1, §2, §3, §4

E. cloacae β19 = settings: Enterobacter cloacae
Method: as §1, §2, §3, §4

K. pneumoniae β14 = settings: Klebsiella pneumoniae
Method: as §1, §2, §3, §4

A. baumannii 49 = system: A. baumannii 49
Method: as §1, §2, §3, §4

K. pneumoniae β10 = settings: Klebsiella pneumoniae
Method: as §1, §2, §3, §4

P. aeruginosa 43 = settings: Pseudomonas aeruginosa
Method: as §1, §2, §3, §4

K. pneumoniae 2011E = settings: Klebsiella pneumoniae, 2011E
Method: as §1, §2, §3, §4

P. aeruginosa 1912E = settings: Pseudomonas aeruginosa, 1912E
Method: as §1, §2, §3, §4

[2] = ATCC15473, A. calcoaceticus ATCC15473
[3] = Acinetobacter baumannii, 46, A. baumannii 46
[4] = Acinetobacter baumannii, 49, A. baumannii 49

SMILES | MIC90 (E. coli AG100; AG100) | MIC90 (A. baumannii 52; 52) | MIC90 (K. pneumoniae β13) | MIC90 (K. pneumoniae β9) | MIC90 [1, 2] | MIC90 (K. pneumoniae β11) | MIC90 (E. coli β4) | MIC90 (P. aeruginosa 6065Y; 6065Y) | MIC90 (M. catarrhalis 2524; 2524) | MIC90 (A. baumannii 46; [3]) | MIC90 (P. aeruginosa 37) | MIC90 (P. aeruginosa 40; Pseudomonas aeruginosa, 40) | MIC90 (E. cloacae β19) | MIC90 (K. pneumoniae β14) | MIC90 (A. baumannii 49; [4]) | MIC90 (K. pneumoniae β10) | MIC90 (P. aeruginosa 43; 43) | MIC90 (K. pneumoniae 2011E) | MIC90 (P. aeruginosa 1912E) | other results
CC(C)(O/N=C(\C(=O)N[C@@H]1C(=O)N2C(C(=O)[O-])=C(C[n+]3cnc(N)c(NC(=O)c4cc(=O)c(O)cn4O)c3)CSC12)c1nc(N)sc1Cl)C(=O)O (some centres unmarked) [Compound 22] | – | – | – | – | – | – | – | – | – | – | – | – | – | – | – | – | – | – | – | MIC90 (E. coli AG100; AG100, E. coli AG100, read-out: MIC90): 2 µg/mL (≈ 2.61 µM); MIC90 (A. baumannii 52; A. baumannii 52, read-out: MIC90): 2 µg/mL (≈ 2.61 µM); MIC90 (K. pneumoniae β13; K. pneumoniae β13, read-out: MIC90): 2 µg/mL (≈ 2.61 µM); MIC90 (K. pneumoniae β9; K. pneumoniae β9, read-out: MIC90): 8 µg/mL (≈ 10.5 µM); MIC90 ([1]; A. calcoaceticus ATCC15473, read-out: MIC90): 0.5 µg/mL (≈ 0.653 µM); MIC90 (K. pneumoniae β11; K. pneumoniae β11, read-out: MIC90): 64 µg/mL (≈ 83.6 µM); MIC90 (E. coli β4; read-out: MIC90): 32 µg/mL (≈ 41.8 µM); MIC90 (P. aeruginosa 6065Y; read-out: MIC90): 2 µg/mL (≈ 2.61 µM); MIC90 (M. catarrhalis 2524; M. catarrhalis 2524, read-out: MIC90): 0.5 µg/mL (≈ 0.653 µM); MIC90 (A. baumannii 46; Acinetobacter baumannii, A. baumannii 46, read-out: MIC90): 128 µg/mL (≈ 167 µM); MIC90 (P. aeruginosa 37; read-out: MIC90): 1 µg/mL (≈ 1.31 µM); MIC90 (P. aeruginosa 40; Pseudomonas aeruginosa, 40, P. aeruginosa 40, read-out: MIC90): 2 µg/mL (≈ 2.61 µM); MIC90 (E. cloacae β19; read-out: MIC90): 32 µg/mL (≈ 41.8 µM); MIC90 (K. pneumoniae β14; read-out: MIC90): 128 µg/mL (≈ 167 µM); MIC90 (A. baumannii 49; Acinetobacter baumannii, A. baumannii 49, read-out: MIC90): 16 µg/mL (≈ 20.9 µM); MIC90 (K. pneumoniae β10; K. pneumoniae β10, read-out: MIC90): 1 µg/mL (≈ 1.31 µM); MIC90 (P. aeruginosa 43; P. aeruginosa 43, read-out: MIC90): 0.5 µg/mL (≈ 0.653 µM); MIC90 (K. pneumoniae 2011E; K. pneumoniae 2011E, read-out: MIC90): 16 µg/mL (≈ 20.9 µM); MIC90 (P. aeruginosa 1912E; read-out: MIC90): 2 µg/mL (≈ 2.61 µM)
C[C@H](O/N=C(\C(=O)N[C@@H]1C(=O)N2C(C(=O)[O-])=C(/C=C/C[n+]3cnc(N)c(NCCN)c3)CSC12)c1csc(N)n1)C(=O)O (some centres unmarked) [Compound 52] | < 0.0625 µg/mL | > 128 µg/mL | 4 µg/mL (≈ 6.32 µM) | 4 µg/mL (≈ 6.32 µM) | 1 µg/mL (≈ 1.58 µM) | 128 µg/mL (≈ 202 µM) | < 0.0625 µg/mL | 4 µg/mL (≈ 6.32 µM) | < 0.0625 µg/mL | 1 µg/mL (≈ 1.58 µM) | 16 µg/mL (≈ 25.3 µM) | 2 µg/mL (≈ 3.16 µM) | 8 µg/mL (≈ 12.6 µM) | 8 µg/mL (≈ 12.6 µM) | > 128 µg/mL | 1 µg/mL (≈ 1.58 µM) | 32 µg/mL (≈ 50.6 µM) | < 0.0625 µg/mL | 0.5 µg/mL (≈ 0.79 µM) | –
CC(C)(O/N=C(\C(=O)N[C@@H]1C(=O)N2C(C(=O)[O-])=C(/C=C/C[n+]3cnc(N)c(NC(=O)CCCN)c3N)CSC12)c1nc(N)sc1Cl)C(=O)O (some centres unmarked) [Compound 67] | 0.5 µg/mL (≈ 0.677 µM) | 64 µg/mL (≈ 86.7 µM) | 2 µg/mL (≈ 2.71 µM) | 8 µg/mL (≈ 10.8 µM) | 4 µg/mL (≈ 5.42 µM) | 8 µg/mL (≈ 10.8 µM) | 2 µg/mL (≈ 2.71 µM) | 32 µg/mL (≈ 43.3 µM) | < 0.0625 µg/mL | 64 µg/mL (≈ 86.7 µM) | 16 µg/mL (≈ 21.7 µM) | 16 µg/mL (≈ 21.7 µM) | 32 µg/mL (≈ 43.3 µM) | 4 µg/mL (≈ 5.42 µM) | 64 µg/mL (≈ 86.7 µM) | 4 µg/mL (≈ 5.42 µM) | > 128 µg/mL | 2 µg/mL (≈ 2.71 µM) | 4 µg/mL (≈ 5.42 µM) | –
CNCCNc1c[n+](C/C=C/C2=C(C(=O)[O-])N3C(=O)[C@@H](NC(=O)/C(=N\OC(C)(C)C(=O)O)c4csc(N)n4)C3SC2)cnc1N (some centres unmarked) [Compound 51] | 0.125 µg/mL (≈ 0.189 µM) | 128 µg/mL (≈ 194 µM) | 0.5 µg/mL (≈ 0.757 µM) | 0.5 µg/mL (≈ 0.757 µM) | 0.5 µg/mL (≈ 0.757 µM) | 32 µg/mL (≈ 48.4 µM) | 0.125 µg/mL (≈ 0.189 µM) | 32 µg/mL (≈ 48.4 µM) | < 0.0625 µg/mL | 8 µg/mL (≈ 12.1 µM) | 32 µg/mL (≈ 48.4 µM) | 4 µg/mL (≈ 6.05 µM) | 32 µg/mL (≈ 48.4 µM) | 0.5 µg/mL (≈ 0.757 µM) | > 128 µg/mL | 0.25 µg/mL (≈ 0.378 µM) | 64 µg/mL (≈ 96.9 µM) | 0.5 µg/mL (≈ 0.757 µM) | 2 µg/mL (≈ 3.03 µM) | –
CC(C)(O/N=C(\C(=O)N[C@@H]1C(=O)N2C(C(=O)[O-])=C(/C=C/C[n+]3cnc(N)c(NC(=O)CCCN)c3)CSC12)c1csc(N)n1)C(=O)O (some centres unmarked) [Compound 63] | 0.125 µg/mL (≈ 0.181 µM) | 128 µg/mL (≈ 186 µM) | 1 µg/mL (≈ 1.45 µM) | 1 µg/mL (≈ 1.45 µM) | 1 µg/mL (≈ 1.45 µM) | 32 µg/mL (≈ 46.5 µM) | 0.25 µg/mL (≈ 0.363 µM) | 16 µg/mL (≈ 23.2 µM) | < 0.0625 µg/mL | 8 µg/mL (≈ 11.6 µM) | 32 µg/mL (≈ 46.5 µM) | 4 µg/mL (≈ 5.81 µM) | 16 µg/mL (≈ 23.2 µM) | 1 µg/mL (≈ 1.45 µM) | 128 µg/mL (≈ 186 µM) | 0.5 µg/mL (≈ 0.726 µM) | 128 µg/mL (≈ 186 µM) | 0.25 µg/mL (≈ 0.363 µM) | 2 µg/mL (≈ 2.9 µM) | –
